Results reported in paper PMC11721817 (Toxicology Reports, 2024).

Tests used:
red blood cells (RBCs) = assay: Hemolysis assay; type: cell-based; conditions: rat blood, 10 μM, 25 μM, 50 μM, and 100 μM, compared to positive control
HCT-116 cells [1] = assay: DNA fragmentation, Hoechst staining, HCT-116; type: cell-based, human; conditions: HCT-116, 50 µM, 24 h
Wistar rats [2] = assay: Serum biochemistry after acute oral administration; conditions: n = 3; for Globulin: normal range 1.5–2.5, mean ± S.E.M; for A/G ratio: normal range 1.58–2.67, mean ± S.E.M; for Albumin: normal range 3.4–4.8, mean ± S.E.M; for Total protein: normal range 5.2–7.1, mean ± S.E.M; for SGPT (ALT): normal range 18–45, mean ± S.E.M; for ALP: normal range 62–230, mean ± S.E.M; for SGOT (AST): normal range 74–183, mean ± S.E.M; for Triglycerides: normal range 20–114, mean ± S.E.M
CT-26 cells [3] = assay: DNA fragmentation, Hoechst staining, CT-26; type: cell-based, murine; conditions: CT-26, 50 µM, 24 h
Wistar rats [4] = assay: Superoxide dismutase activity in organ homogenates; type: in vivo, rat
Wistar rats [5] = assay: Lipid peroxidation assay; type: in vivo, rat; conditions: 1000 mg/kg, compared to control
[6] = test system: CT-26 (murine colorectal cancer cells); assay: MTT cytotoxicity assay, CT-26; type: cell-based; conditions: Mus musculus, CT26, 24 h
CT-26 cells [7] = assay: Cell migration; type: cell-based, murine; conditions: 24 h, control = 100 %
Wistar rats [8] = assay: Acute oral toxicity study; conditions: for change in body weight / food consumed by animals (weight) / change in organ weight, Kidney / change in organ weight, Liver / change in organ weight, Spleen: mean ± S.E.M, n = 5; for body weight course: 7th and 14th day; for toxicity signs / tremors, change in eye and skin color / Mortality: oral; for Mortality: 2000 mg/kg
HCT-116 cells [9] = assay: Cell migration; type: cell-based, human; conditions: 24 h, control = 100 %
[10] = test system: HCT-116 (human colorectal cancer cells); assay: MTT cytotoxicity assay, HCT-116; type: cell-based; conditions: for cell viability: HCT-116, 10 μM and 25 μM; for IC50: Homo sapiens, HCT-116, 24 h
Wistar rats [11] = assay: Histopathological examination of liver, kidney and spleen; type: in vivo, rat; conditions: for Liver sections, histopathology / Spleen sections, histopathology: H&E
[12] = 1000 mg/kg, compared with IG-01–007 and IG-01–008 at 300 mg/kg
[13] = 1000 mg/kg, compared with control and 1 % DMSO
[14] = 14th day, 1000 mg/kg, compared to control

CC(C)(C)Nc1c(-c2ccc(-c3ccccc3)cc2)nc2ccccn12 [IG-01–007, 2-([1,1’-biphenyl]-4-yl)-N-(tert-butyl)imidazo[1,2-a]pyridine-3-amine]
hemolytic activity (red blood cells (RBCs)): did not show any hemolytic activity | DNA fragmentation (HCT-116 cells [1]): DNA fragmentation | Globulin (Wistar rats [2]; 300 mg/kg): 3.80 ± 0.404 g/dL | A/G ratio (Wistar rats [2]; 300 mg/kg): 0.69 ± 0.0608 | Albumin (Wistar rats [2]; 300 mg/kg): 3.33 ± 0.437 g/dL | Total protein (Wistar rats [2]; 300 mg/kg): 7.03 ± 0.491 g/dL | SGPT (ALT) (Wistar rats [2]; 300 mg/kg): 47.66 ± 2.728 U/L | ALP (Wistar rats [2]; 300 mg/kg): 307.33 ± 7.218 U/L | SGOT (AST) (Wistar rats [2]; 300 mg/kg): 193 ± 12.74 U/L | Globulin (Wistar rats [2]; 1000 mg/kg): 4.006 ± 0.1034 g/dL | A/G ratio (Wistar rats [2]; 1000 mg/kg): 0.6966 ± 0.0317 | Albumin (Wistar rats [2]; 1000 mg/kg): 3.683 ± 0.261 g/dL | Total protein (Wistar rats [2]; 1000 mg/kg): 7.40 ± 0.324 g/dL | SGPT (ALT) (Wistar rats [2]; 1000 mg/kg): 75.33 ± 4.05 U/L | Triglycerides (Wistar rats [2]; 1000 mg/kg): 115 ± 4.055 mg% | ALP (Wistar rats [2]; 1000 mg/kg): 343.0 ± 10.785 U/L | SGOT (AST) (Wistar rats [2]; 1000 mg/kg): 242 ± 3.785 U/L | DNA fragmentation (CT-26 cells [3]): DNA fragmentation | SOD level, spleen (Wistar rats [4]; [12]): significant reduction of SOD level | SOD level, spleen (Wistar rats [4]; [13]): significant decrease seen in SOD level | MDA levels, liver (Wistar rats [5]): significantly higher | IC50 [6]: 61.2 ± 21.2 µM | migration percentages (CT-26 cells [7]; CT-26, 25 μM): 45.61% | migration percentages (CT-26 cells [7]; CT-26, 50 μM): 30.62% | change in body weight (Wistar rats [8]; 0 day, 300 mg/kg): 233 ± 2 gm | food consumed by animals (weight) (Wistar rats [8]; 0 day, 300 mg/kg): 93.8 ± 1.1575 gm | change in body weight (Wistar rats [8]; 0 day, 1000 mg/kg): 244 ± 15.6844 gm | food consumed by animals (weight) (Wistar rats [8]; 0 day, 1000 mg/kg): 94.8 ± 0.80 gm | change in organ weight, Kidney (Wistar rats [8]; 300 mg/kg): 1.6568 ± 0.110 gm | change in organ weight, Liver (Wistar rats [8]; 300 mg/kg): 6.58 ± 0.535 gm | change in organ weight, Spleen (Wistar rats [8]; 300 mg/kg): 0.654 ± 0.075 gm | change in organ weight, Kidney (Wistar rats [8]; 1000 mg/kg): 1.854 ± 0.1179 gm | change in organ weight, Liver (Wistar rats [8]; 1000 mg/kg): 6.204 ± 0.2716 gm | change in organ weight, Spleen (Wistar rats [8]; 1000 mg/kg): 0.716 ± 0.0508 gm | body weight course (Wistar rats [8]; 1000 mg/kg): gradual decrease in body weight | change in body weight (Wistar rats [8]; 7th day, 300 mg/kg): 248 ± 3.391 gm | food consumed by animals (weight) (Wistar rats [8]; 7th day, 300 mg/kg): 90.4 ± 1.288 gm | change in body weight (Wistar rats [8]; 7th day, 1000 mg/kg): 238 ± 16.17 gm | food consumed by animals (weight) (Wistar rats [8]; 7th day, 1000 mg/kg): 88.6 ± 1.363 gm | change in body weight (Wistar rats [8]; 14th day, 300 mg/kg): 253 ± 8 gm | food consumed by animals (weight) (Wistar rats [8]; 14th day, 300 mg/kg): 89.2 ± 2.009 gm | food intake (Wistar rats [8]; [14]): significant decrease in food intake | change in body weight (Wistar rats [8]; 14th day, 1000 mg/kg): 231 ± 15.033 gm | food consumed by animals (weight) (Wistar rats [8]; 14th day, 1000 mg/kg): 82.4 ± 1.939 gm | toxicity signs (Wistar rats [8]; 1000 mg/kg): toxicity signs were seen | tremors, change in eye and skin color (Wistar rats [8]; 1000 mg/kg): tremors, change in eye and skin color was observed | Mortality (Wistar rats [8]): Mortality was observed | % migration of cell (HCT-116 cells [9]; HCT-116, 25 μM): 41.75% | % migration of cell (HCT-116 cells [9]; HCT-116, 50 μM): 35.07% | cell viability [10]: no significant reduction in cell viability | IC50 [10]: 30.1 ± 1.58 µM | Liver sections, histopathology (Wistar rats [11]; 300 mg/kg): healthy with normal hepatocytes while some sections were found to have non-uniform cell structure | Spleen sections, histopathology (Wistar rats [11]; 300 mg/kg): diffuse white pulp and distorted lymphoid architecture | Liver sections, histopathology (Wistar rats [11]; 1000 mg/kg): healthy with mild activation of kupffer cells indicated by circle and moderate steatosis | Spleen sections, histopathology (Wistar rats [11]; 1000 mg/kg): diffuse white pulp and distorted lymphoid architecture

CC(C)(C)CC(C)(C)Nc1c(-c2ccc(-c3ccccc3)cc2)nc2cnccn12 [IG-01–008, 2-([1,1’-biphenyl]-4-yl)-N-(2,4,4-trimethylpentan-2-yl)imidazo[1,2-a]pyrazin-3-amine]
hemolytic activity (red blood cells (RBCs)): did not show any hemolytic activity | DNA fragmentation (HCT-116 cells [1]): DNA fragmentation | Globulin (Wistar rats [2]; 300 mg/kg): 4.30 ± 0.529 g/dL | A/G ratio (Wistar rats [2]; 300 mg/kg): 0.736 ± 0.0523 | Albumin (Wistar rats [2]; 300 mg/kg): 3.166 ± 0.2905 g/dL | Total protein (Wistar rats [2]; 300 mg/kg): 7.266 ± 0.523 g/dL | SGPT (ALT) (Wistar rats [2]; 300 mg/kg): 60.33 ± 3.756 U/L | ALP (Wistar rats [2]; 300 mg/kg): 391.33 ± 9.261 U/L | SGOT (AST) (Wistar rats [2]; 300 mg/kg): 255 ± 5.291 U/L | Globulin (Wistar rats [2]; 1000 mg/kg): 4.35 ± 0.144 g/dL | A/G ratio (Wistar rats [2]; 1000 mg/kg): 0.923 ± 0.0648 | Albumin (Wistar rats [2]; 1000 mg/kg): 3.67 ± 0.2055 g/dL | Total protein (Wistar rats [2]; 1000 mg/kg): 7.60 ± 0.3183 g/dL | SGPT (ALT) (Wistar rats [2]; 1000 mg/kg): 79.0 ± 1.732 U/L | Triglycerides (Wistar rats [2]; 1000 mg/kg): 115.33 ± 5.487 mg% | ALP (Wistar rats [2]; 1000 mg/kg): 501.66 ± 13.64 U/L | SGOT (AST) (Wistar rats [2]; 1000 mg/kg): 302.33 ± 4.096 U/L | DNA fragmentation (CT-26 cells [3]): DNA fragmentation | SOD level, spleen (Wistar rats [4]; 300 mg/kg, compared with control and 1 % DMSO): significant decrease seen in SOD level | SOD level, spleen (Wistar rats [4]; [12]): significant reduction of SOD level | SOD levels, kidney (Wistar rats [4]; 1000 mg/kg, compared with IG-01–007 at 300 mg/kg): SOD levels were significantly decreased | SOD level, spleen (Wistar rats [4]; [13]): significant decrease seen in SOD level | SOD levels, kidney (Wistar rats [4]; 1000 mg/kg, in comparison with 1 % DMSO): SOD levels significantly decreased | MDA levels, liver (Wistar rats [5]): significantly higher | IC50 [6]: 48.1 ± 22.6 µM | migration percentages (CT-26 cells [7]; CT-26, 25 μM): 35.65% | migration percentages (CT-26 cells [7]; CT-26, 50 μM): 39.17% | change in body weight (Wistar rats [8]; 0 day, 300 mg/kg): 242 ± 5.1478 gm | food consumed by animals (weight) (Wistar rats [8]; 0 day, 300 mg/kg): 92.2 ± 0.374 gm | change in body weight (Wistar rats [8]; 0 day, 1000 mg/kg): 249 ± 8.124 gm | food consumed by animals (weight) (Wistar rats [8]; 0 day, 1000 mg/kg): 92.4 ± 1.166 gm | change in organ weight, Kidney (Wistar rats [8]; 300 mg/kg): 2.058 ± 0.123 gm | change in organ weight, Liver (Wistar rats [8]; 300 mg/kg): 6.21 ± 0.15 gm | change in organ weight, Spleen (Wistar rats [8]; 300 mg/kg): 0.83 ± 0.0763 gm | change in organ weight, Kidney (Wistar rats [8]; 1000 mg/kg): 1.954 ± 0.110 gm | change in organ weight, Liver (Wistar rats [8]; 1000 mg/kg): 6.74 ± 0.332 gm | change in organ weight, Spleen (Wistar rats [8]; 1000 mg/kg): 0.747 ± 0.1135 gm | body weight course (Wistar rats [8]; 1000 mg/kg): gradual decrease in body weight | food consumption (Wistar rats [8]; 7th day, 300 mg/kg and 1000 mg/kg, compared to control): significant decrease in food consumption | change in body weight (Wistar rats [8]; 7th day, 300 mg/kg): 254 ± 6.595 gm | food consumed by animals (weight) (Wistar rats [8]; 7th day, 300 mg/kg): 86.2 ± 0.969 gm | change in body weight (Wistar rats [8]; 7th day, 1000 mg/kg): 236 ± 8.124 gm | food consumed by animals (weight) (Wistar rats [8]; 7th day, 1000 mg/kg): 83.2 ± 0.86 gm | food intake (Wistar rats [8]; 14th day, 300 mg/kg and 1000 mg/kg, compared to 1 % DMSO): significant reduction in food intake | food intake (Wistar rats [8]; 14th day, 300 mg/kg, compared to control): significant decrease in food intake | change in body weight (Wistar rats [8]; 14th day, 300 mg/kg): 257 ± 6.04 gm | food consumed by animals (weight) (Wistar rats [8]; 14th day, 300 mg/kg): 81.2 ± 0.916 gm | food intake (Wistar rats [8]; [14]): significant decrease in food intake | change in body weight (Wistar rats [8]; 14th day, 1000 mg/kg): 225 ± 8.366 gm | food consumed by animals (weight) (Wistar rats [8]; 14th day, 1000 mg/kg): 76 ± 1.702 gm | body weight (Wistar rats [8]; day 14th, 1000 mg/kg, compared to control): significantly lowered | toxicity signs (Wistar rats [8]; 1000 mg/kg): toxicity signs were seen | tremors, change in eye and skin color (Wistar rats [8]; 1000 mg/kg): tremors, change in eye and skin color was observed | Mortality (Wistar rats [8]): Mortality was observed | % migration of cell (HCT-116 cells [9]; HCT-116, 25 μM): 36.33% | % migration of cell (HCT-116 cells [9]; HCT-116, 50 μM): 20.76% | cell viability [10]: no significant reduction in cell viability | cytotoxicity ([10]; HCT-116, 50 μM and 100 μM): higher cytotoxicity compared to IG-01–007 | IC50 [10]: 30.9 ± 10.6 µM | Liver sections, histopathology (Wistar rats [11]; 300 mg/kg): mild steatosis and presence of micro and macro vesicles | Spleen sections, histopathology (Wistar rats [11]; 300 mg/kg): ill-defined spleen section | Liver sections, histopathology (Wistar rats [11]; 1000 mg/kg): moderate to severe fatty liver change with presence of sinusoidal spaces indicated by arrow and multi necrotic foci filled with mild hemorrhage | Spleen sections, histopathology (Wistar rats [11]; 1000 mg/kg): disrupt white pulp | toxicity in liver tissues (abstract) (Wistar rats [11]; doses of ≥ 1000 mg/kg): hepatic damage and cholestasis
